Test results taken from publication PMC3729937 (Biochemical and biophysical research communications, 2012).

Key:
FGFR2 D2 domain [1] = biological target: FGFR2 D2 domain (Homo sapiens, UniProt P21802); test: ITC; format: binding
FGFR2 D2 domain [2] = biological target: FGFR2 D2 domain (Homo sapiens, UniProt P21802, A168S); test: ITC, supported by 1H-15N HSQC chemical shift perturbation; format: binding
[3] = biological target: fibroblast growth factor (FGF-1) (UniProt P05230 16-155); test: ITC
fibroblast growth factor (FGF-1), sequence (P05230 16-155): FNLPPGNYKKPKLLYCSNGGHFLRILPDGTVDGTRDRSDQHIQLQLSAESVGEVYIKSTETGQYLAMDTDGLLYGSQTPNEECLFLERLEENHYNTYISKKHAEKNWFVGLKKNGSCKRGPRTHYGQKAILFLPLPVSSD

FGFR2 D2 domain (Homo sapiens, UniProt P21802, A168S), sequence (P21802 145-255 A168S): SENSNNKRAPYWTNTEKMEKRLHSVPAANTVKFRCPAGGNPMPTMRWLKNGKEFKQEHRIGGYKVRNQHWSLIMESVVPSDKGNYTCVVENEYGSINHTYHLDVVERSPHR

O=S(=O)(O)OC[C@H]1O[C@@](COS(=O)(=O)O)(O[C@H]2O[C@H](COS(=O)(=O)O)[C@@H](OS(=O)(=O)O)[C@H](OS(=O)(=O)O)[C@H]2OS(=O)(=O)O)[C@@H](OS(=O)(=O)O)[C@@H]1OS(=O)(=O)O [SOS, sucrose octasulfate]
Kd (FGFR2 D2 domain [1]): ~2.2 µM | Kd (FGFR2 D2 domain [2]): ~22 µM

B1: wild type D2 domain of fibroblast growth factor receptor 2 (FGFR2), residues 145-255 (domain or fragment, human, UniProt P21802 145-255, looked up)
chain: SENSNNKRAPYWTNTEKMEKRLHAVPAANTVKFRCPAGGNPMPTMRWLKNGKEFKQEHRIGGYKVRNQHWSLIMESVVPSDKGNYTCVVENEYGSINHTYHLDVVERSPHR
Kd [3]: ~2 µM
